Measured values: patent US20260324646A1, “BIOLOGICAL COMPOSITION FOR USE AGAINST PLANT FUNGICIDAL INFECTIONS” (UNIVERSITA' DEGLI STUDI DI MILANO, priority 2023, published 2026)

What was measured:
[1] = test system: Alternaria sp. and B. caroliniana; assay: In vitro growth inhibition of phytopathogenic fungi on PDA (radial growth rate, 12-day effect); format: cell-based, Alternaria sp.; Botrytis caroliniana; conditions: for radial growth rate (Kr): PDA, 27±1° C.
Description: The phytopathogenic fungus Alternaria sp. was isolated in December 2021 from a vineyard in Oltrepo pavese (Santa Maria della Versa, Pavia, Italy).
In addition to Alternaria sp., experiments were also carried out on the fungus Botrytis caroliniana.
(§1) The fungal strains were maintained on potato dextrose agar (PDA, Merck kGaA, Darmstadt, Germany) at 4±1° C. and regularly subcultured. Plants of Solanum lycopersicum (cultivar Rio Grande) were sprouted in the greenhouse of the Fondazione dell'Università di Milano Filarete (Milan, Italy) under controlled conditions (T=18/25±1° C. (night/day), humidity ≥90%, photoperiod 16 h light:8 h dark). Determination of in vitro growth inhibition caused by mixtures of CA, BA, CaCl2 and the compositions of the invention was performed by measuring the diameter and calculating the radial growth rate (Kr, mm/h). The diameter growth of the fungi was determined daily, in six repetitions, using the Image J program (Copyright© 1993, 2018, Oracle).
The fungal cultures were carried out in Petri dishes (6 Well Cell Culture Plates, Sigma-Aldrich). The media treated with the compositions of the invention were inoculated with mycelial caps (diameter 7 mm) of growing active fungal strains (e.g., Alternaria sp. and B. caroliniana). The control cultures are carried out on PDA support and compared with those conducted on CA, BA, CaCl2 and on compositions according to the invention. The media was sterilized at 121° C. for 20 min. Incubation was carried out at 27±1° C. for 12 days in a static incubator (Memmert GmbH+Co. KG, Schwabach, Germany).
The results are shown in FIG. 1 (a) PDA control; b) PDA substrate containing citric acid).

S. lycopersicum plants = assay: Phytotoxicity to treated plants in the in vivo experiments; design: species or system Solanum lycopersicum (cultivar Rio Grande); conditions: BA 3X (4.8 mM), sprayed 24 hours after infection
Description: as §1
S. lycopersicum plants were infected by […] the spores of the pathogenic fungus Alternaria sp. on the attached leaves and stem. Alternaria sp. spores were obtained by dropping 20 mL of sterile H2O into a culture of the fungus in a Petri dish. The inoculum was calculated after enumerating the spores under light microscope using a counting chamber device and the concentration was 3.1×10^6 spores/mL. 24 hours after infection, the attached leaves were sprayed with the compositions of the invention. The plants were infected and untreated, or treated with CA mixtures or with the compositions of the invention 24 hours after infection with Alternaria sp. […]

SMILES: OB(O)O [BA, Boric acid]
- radial growth rate (Kr) ([1]; BA 1X (1.6 mM)): 0.115 mm/h
- radial growth rate (Kr) ([1]; BA 3X (4.8 mM)): 0.051 mm/h
- Effect (12 days from cultivation) ([1]; BA 5X (8.0 mM)): −
- radial growth rate (Kr) ([1]; BA 5X (8.0 mM)): 0.003 mm/h
- Effect (8 days after infection): toxicity for the plant (S. lycopersicum plants): Toxic for the plant

SMILES: O=C(O)CC(O)(CC(=O)O)C(=O)O [CA, Citric acid]
- radial growth rate (Kr) ([1]; CA 1X (0.01M)): 0.099 mm/h
- radial growth rate (Kr) ([1]; CA 2X (0.02M)): 0.028 mm/h
- radial growth rate (Kr) ([1]; CA 3X (0.03M)): 0.034 mm/h
- radial growth rate (Kr) ([1]; CA 5X (0.05M)): 0.012 mm/h
- radial growth rate (Kr) ([1]; CA 7X (0.07M)): 0.020 mm/h
- Effect (12 days from cultivation) ([1]; CA 10X (0.1M)): −
- radial growth rate (Kr) ([1]; CA 10X (0.1M)): 0.000 mm/h
- Effect (12 days from cultivation) ([1]; CA 105X (1M)): −
- radial growth rate (Kr) ([1]; CA 105X (1M)): 0.000 mm/h

SMILES: [Ca+2].[Cl-].[Cl-] [CaCl2, Calcium chloride]
- Effect (12 days from cultivation) ([1]; CaCl2 1X (0.45 mM)): +++++
- radial growth rate (Kr) ([1]; CaCl2 1X (0.45 mM)): 0.214 mm/h
- Effect (12 days from cultivation) ([1]; CaCl2 2X (0.90 mM)): +++++
- radial growth rate (Kr) ([1]; CaCl2 2X (0.90 mM)): 0.221 mm/h
- radial growth rate (Kr) ([1]; CaCl2 3X (1.4 mM)): 0.077 mm/h
